Where two headings read alike, the source gives them in different places.
How the values were obtained:
Totenkopfäffchen [1] = assay: Inhibition of cholesterol absorption after oral [14C]-cholesterol test meal, faecal radioactivity over 2.5 days; type: in vivo; conditions: in percent of untreated control animals
Method: Einer Gruppe von 12 Totenkopfäffchen wurde ein Gemisch enthaltend Triolein, Stärke, Milchpulver, 1 mg [¹⁴C]-Cholesterin und 0.05 mg [³H]-Polyäthylenglycol und unmittelbar darauf eine Dispersion von CPC in 5% Gummi arabicum oral verabreicht. Hierauf wurde der Kot während 2,5 Tagen gesammelt. Die ausgeschiedene [¹⁴C]-Radioaktivität des Cholesterins wurde unter Berücksichtigung der [³H]-Radioaktivität des internen Standards Polyäthylenglycol ermittelt. Es wurde die Cholesterinabsorption (Differenz zwischen der verabreichten und der ausgeschiedenen [¹⁴C]-Radioaktivität des Cholesterins) berechnet und in der nachfolgenden Tabelle in Prozenten von unbehandelten Kontrolltieren angegeben.

Totenkopfäffchen [2] = assay: Plasma cholesterol level during 14 days of feeding with coconut-oil diet; type: in vivo; conditions: for Senkung des Cholesterinspiegels in Prozenten der Kontrolltieren: versus placebo
Method: Totenkopfäffchen wurde pro Tier und Tag 239 mg Lactose als Placebo oder 239 mg CPC zusammen mit Kokonussöl enthaltendem Futter während 14 Tagen verabreicht. Jede 3 oder 4 Tage wurde den Tieren venöses Blut entnommen und der Cholesterinspiegel im Blutplasma ermittelt. In der nachstehenden Tabelle wird der Cholesterinspiegel in Prozenten der Vorperiode sowie die Senkung des Cholesterinspiegels in Prozenten der Kontrolltieren angegeben.

Acute toxicity (LD50) = conditions: mouse, in vivo, Maus, read-out: LD₅₀
Method: Was die Toxizität anbelangt, beträgt die LD₅₀ von CPC 125 mg/kg i.v. und 4000 mg/kg p.o. an der Maus.

CC(C)CCC[C@@H](C)[C@H]1CC[C@H]2[C@@H]3CC=C4C[C@@H](OP(=O)([O-])OCC[N+](C)(C)C)CC[C@]4(C)[C@H]3CC[C@]12C [CPC, Cholesteryl-phosphorylcholin]
Cholesterinabsorption (%) (Totenkopfäffchen [1]; Dosis 30 µMol/kg oral): 90 ± 17%
Cholesterinabsorption (%) (Totenkopfäffchen [1]; Dosis 100 µMol/kg oral): 60 ± 10%
Cholesterinabsorption (%) (Totenkopfäffchen [1]; Dosis 300 µMol/kg oral): 12 ± 6%
Cholesterinspiegel im Blutplasma in Prozenten der Vorperiode (Totenkopfäffchen [2]; Tag 1, vor der Behandlung, 239 mg CPC per animal and day): 100±8%
Senkung des Cholesterinspiegels in Prozenten der Kontrolltieren (Totenkopfäffchen [2]; Tag 1, vor der Behandlung): 0%
Cholesterinspiegel im Blutplasma in Prozenten der Vorperiode (Totenkopfäffchen [2]; Tag 4, während der Behandlung, 239 mg CPC per animal and day): 88±6%
Senkung des Cholesterinspiegels in Prozenten der Kontrolltieren (Totenkopfäffchen [2]; Tag 4, während der Behandlung): 9%
Cholesterinspiegel im Blutplasma in Prozenten der Vorperiode (Totenkopfäffchen [2]; Tag 7, während der Behandlung, 239 mg CPC per animal and day): 84±4%
Senkung des Cholesterinspiegels in Prozenten der Kontrolltieren (Totenkopfäffchen [2]; Tag 7, während der Behandlung): 20%
Cholesterinspiegel im Blutplasma in Prozenten der Vorperiode (Totenkopfäffchen [2]; Tag 11, während der Behandlung, 239 mg CPC per animal and day): 93±13%
Senkung des Cholesterinspiegels in Prozenten der Kontrolltieren (Totenkopfäffchen [2]; Tag 11, während der Behandlung): 13%
Cholesterinspiegel im Blutplasma in Prozenten der Vorperiode (Totenkopfäffchen [2]; Tag 14, während der Behandlung, 239 mg CPC per animal and day): 86±11%
Senkung des Cholesterinspiegels in Prozenten der Kontrolltieren (Totenkopfäffchen [2]; Tag 14, während der Behandlung): 18%
Cholesterinspiegel im Blutplasma in Prozenten der Vorperiode (Totenkopfäffchen [2]; Tag 18, nach der Behandlung, 239 mg CPC per animal and day for 14 days): 94±13%
Senkung des Cholesterinspiegels in Prozenten der Kontrolltieren (Totenkopfäffchen [2]; Tag 18, nach der Behandlung): 9%
Cholesterinspiegel im Blutplasma in Prozenten der Vorperiode (Totenkopfäffchen [2]; Tag 21, nach der Behandlung, 239 mg CPC per animal and day for 14 days): 97±11%
Senkung des Cholesterinspiegels in Prozenten der Kontrolltieren (Totenkopfäffchen [2]; Tag 21, nach der Behandlung): 10%
reversible Senkung des Plasmacholesterols (Totenkopfäffchen [2]; summary, versus placebo values and values of the pre-period): 10 bis 20%
LD50 (Acute toxicity (LD50); iv): 125 mg/kg
LD50 (Acute toxicity (LD50); po): 4000 mg/kg
